# Test results: patent publication US9616051B2, “Drug targets to overcome de novo drug-resistance in multiple myeloma” (H. Lee Moffitt Cancer Center and Research Institute, Inc., priority 2008, dated 2017)
# Entries after “also recorded” stand apart in the source; their conditions may differ. Where two headings read alike, the source gives them in different places.
# How the values were obtained:
# topo IIα [1] = biological target: T1, topo IIα (Homo sapiens, UniProt P11388); assay: Nuclear-cytoplasmic fractionation and Western blot for topo IIα; type: cell-based; conditions: high-density RPMI-H929 cells, 25 μM, FIG. 13 legend
# T1 construct: effect on the intracellular location of topo IIα in treated MM cells; endogenous in cells; host or cells: human multiple myeloma cells NCI-H929
# T1 sequence (P11388 whole entry): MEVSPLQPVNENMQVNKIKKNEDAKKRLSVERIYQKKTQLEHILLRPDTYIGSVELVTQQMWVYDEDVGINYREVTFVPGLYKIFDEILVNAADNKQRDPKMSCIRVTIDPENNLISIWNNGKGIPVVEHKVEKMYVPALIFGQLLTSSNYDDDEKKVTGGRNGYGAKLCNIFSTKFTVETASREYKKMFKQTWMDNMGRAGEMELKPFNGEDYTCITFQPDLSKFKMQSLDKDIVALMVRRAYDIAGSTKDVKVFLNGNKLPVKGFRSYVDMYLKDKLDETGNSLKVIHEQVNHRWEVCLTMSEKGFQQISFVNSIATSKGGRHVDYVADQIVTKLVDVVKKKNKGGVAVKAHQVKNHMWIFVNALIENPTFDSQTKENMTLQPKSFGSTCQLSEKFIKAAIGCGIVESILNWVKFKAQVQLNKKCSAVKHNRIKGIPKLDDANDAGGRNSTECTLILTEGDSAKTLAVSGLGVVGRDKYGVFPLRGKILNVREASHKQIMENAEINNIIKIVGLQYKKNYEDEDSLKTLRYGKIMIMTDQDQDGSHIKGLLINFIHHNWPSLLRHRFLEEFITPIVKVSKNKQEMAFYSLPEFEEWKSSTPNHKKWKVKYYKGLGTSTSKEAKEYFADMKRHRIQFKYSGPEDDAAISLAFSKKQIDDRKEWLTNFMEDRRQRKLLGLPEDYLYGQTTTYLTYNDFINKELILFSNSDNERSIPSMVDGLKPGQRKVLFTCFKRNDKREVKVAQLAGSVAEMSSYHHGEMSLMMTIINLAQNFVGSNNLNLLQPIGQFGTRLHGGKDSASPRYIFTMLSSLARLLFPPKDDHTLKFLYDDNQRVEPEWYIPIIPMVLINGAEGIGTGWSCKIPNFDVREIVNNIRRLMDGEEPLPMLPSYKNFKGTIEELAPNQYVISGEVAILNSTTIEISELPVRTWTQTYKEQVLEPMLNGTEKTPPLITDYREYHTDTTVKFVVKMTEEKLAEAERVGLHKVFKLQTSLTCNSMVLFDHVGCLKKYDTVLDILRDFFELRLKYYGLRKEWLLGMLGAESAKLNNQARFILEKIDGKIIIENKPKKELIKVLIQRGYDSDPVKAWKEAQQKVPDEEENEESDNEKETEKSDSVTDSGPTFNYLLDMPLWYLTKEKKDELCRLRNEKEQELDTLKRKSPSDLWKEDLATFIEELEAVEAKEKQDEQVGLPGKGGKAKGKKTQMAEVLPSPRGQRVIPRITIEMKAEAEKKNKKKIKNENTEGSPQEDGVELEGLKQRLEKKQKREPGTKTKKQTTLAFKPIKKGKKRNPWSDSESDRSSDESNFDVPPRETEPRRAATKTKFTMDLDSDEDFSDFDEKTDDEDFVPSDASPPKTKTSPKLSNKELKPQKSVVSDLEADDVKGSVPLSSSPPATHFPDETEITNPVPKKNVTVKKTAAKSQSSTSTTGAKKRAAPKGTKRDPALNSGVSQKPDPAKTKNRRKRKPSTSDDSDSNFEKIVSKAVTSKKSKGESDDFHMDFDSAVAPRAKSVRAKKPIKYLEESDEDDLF
# Description: FIGS. 13(A) and (B) are blots from nuclear (nuc)-cytoplasmic (cyto) fractionation of high-density MM cells (n=2). […] Human myeloma RPMI-H929 cells were treated for 24 hours. Cells were then chemically separated into nuclear and cytoplasmic fractions.
# Human myeloma cells were placed at plateau concentrations (4×10^6 cells/ml), and NES inhibitors were added at 25 μM for 20 hours. Cells were collected, washed in PBS, and fractionated by a method adapted from Li et al. (Li Y, Bor Y C, Misawa Y, Xue Y, Rekosh D, Hammarskjold M L. An intron with a constitutive transport element is retained in a Tap messenger RNA. Nature 2006; 443: 234-7). Separated fractions containing nuclei or precipitated cytosol were dissolved in 2% SDS buffer and assayed by SDS-PAGE Western blot analysis. Blots were probed with an anti-topo IIα Kis1 antibody (Millipore Corp.). […] Cells grown at log-phase concentrations were also fractionated. After MM cells were treated with NCI-9138 at 25 μM for 20 hours, CRM1-topo IIα complexes were isolated from cells by immunoprecipitation using a combination of both protein A and protein G magnetic beads according to the manufacturer's protocol (Miltenyi Biotec, Cologne, Germany). Co-immunoprecipitation was performed with 2 μg of anti-CRM1 antibody (Santa Cruz Biotechnology, Inc., Santa Cruz, Calif.). Immunoprecipitation samples were separated by SDS-PAGE, transferred to nitrocellulose membranes, and probed with anti-topo IIα Kis1 antibody (Millipore, Corp., Billerica, Mass.) and anti-mouse horseradish peroxidase secondary antibody.
# topo IIα [2] = biological target: T1, topo IIα; assay: as above; type: cell-based; conditions: RPMI-H929 cells, 100 μM, 24 hours, relative to untreated controls
# [3] = system: high-density MM cells (H929); assay: Cleaved caspase 3 apoptosis assay, sensitization to doxorubicin; conditions: for Sensitization of high-density MM cells to doxorubicin / synergism: 25 μM NES inhibitor, doxorubicin 2 μM; for Fold-Increased sensitization to dox: dox/drug (dox 2 μM) divided by dox alone
# topo IIα [4] = biological target: T1, topo IIα; assay: Immunofluorescence microscopy of intracellular location of topo IIα; type: cell-based; conditions: 25 μM NES inhibitor; for Nuclear export of topo IIα by immunofluorescence: 20 hours, high-density (plateau) MM cells; for Fold-increase nuclear topo IIα: H929 cells, nucleus v cytoplasm fluorescence vs untreated high-density controls
# Description: Slides were viewed with a fully automated, upright Zeiss Axio-ImagerZ.1 microscope (Carl Zeiss A G, Oberkochen, Germany). Briefly, the DAPI image was used as a mask to segment the nuclear region from the Alexa 594 image. The remaining portion of the Alexa 594 image represents the cytosol, and individual nucleus and cytosol images were analyzed.
# H929 cells were mock treated with 0.1% DMSO in media or with 25 μM of NES inhibitor. The high density control cells, seen in FIG. 9(A) show high levels of topo II staining outside the nucleus, evidencing export of topo II from the nucleus.
# RPMI-8226 (8226) = assay: CT-Glo cytotoxicity assay, 8226 cells; type: cell-based, human; conditions: 8226 cells, 72-h CT-Glo, log-phase (low-density), average ± SD, read-out: IC50
# Source text: (§1) Compounds identified in Example 1 as the top scoring potential inhibitors for each of the two NES (20 each) were obtained from NCI and structures of these molecules confirmed using NMR and mass spectroscopy analysis, seen in FIGS. 4(A)-(C) and 5(A)-(D). The potential inhibitors were followed up using in vitro model cell cultures. MM cell lines NCI-H929 (H929) and RPMI-8226 (8226) were obtained from and tested for authenticity by the American Type Culture Collection (Manassas, Va.). All cell lines were grown as described previously (Turner, et al., Human topoisomerase IIalpha nuclear export is mediated by two CRM-1-dependent nuclear export signals. J Cell Sci 2004; 117: 3061-71).
# (§2) The molecules with the highest docking scores were assayed for IC50 values. Cultures were tested for cytotoxicity using the CellTiter-Glo assay (CT-Glo cytotoxicity assay; Promega, Madison, Wis.), a luminescence-based homogeneous method for determining the number of viable cells in culture based on quantitation of the ATP present, which signals the presence of metabolically active cells (Corsino, et al., A novel class of cyclin-dependent kinase inhibitors identified by molecular docking act through a unique mechanism. J Biol Chem 2009; 284: 29945-55; Homsi, et al., Src activation in melanoma and Src inhibitors as therapeutic agents in melanoma. Melanoma Res 2009; 19: 167-75). All cells were assayed at log-phase growth conditions. Luminescence was measured with a Synergy 4 microplate reader (Bio-Tek Instruments, Inc., Winooski, Vt.). IC50 values were determined using a sigmoidal equilibrium model regression using XLfit version 5.2 (ID Business Solutions Ltd., Surrey, UK) (Corsino, et al., A novel class of cyclin-dependent kinase inhibitors identified by molecular docking act through a unique mechanism. J Biol Chem 2009; 284: 29945-55).
# Kg-1a = assay: CT-Glo cytotoxicity assay, Kg-1a cells; type: cell-based; conditions: 72-h CT-Glo
# Description: as §2
# NCI-H929 (H929) = assay: CT-Glo cytotoxicity assay, H929 cells; type: cell-based, human; conditions: average ± SD
# Source text: as §1, §2
# FLOW = assay: CT-Glo cytotoxicity assay, FLOW cells; type: cell-based; conditions: 72-h CT-Glo, average ± SD
# Description: as §2
# p53 = p53 nuclear export in low-density myeloma cells (nuclear fraction Western blot); type: cell-based, human; conditions: H929 at low density (log growth), 25 μM, 20 hours
# Description: FIG. 14 is a blot of lead compounds tested to determine if nuclear export inhibition was specific to topo IIα protein. p53 was cycled from the nucleus into the cytoplasm in MM cells cultured at log growth conditions. Cells grown at log-phase concentrations were treated with the lead NES inhibitors (25 μM) or a leptomycin control for 20 hours and chemically fractionated. Nuclei were assayed by SDS-PAGE Western blot analysis for p53 protein (anti-p53 (DO-1), Santa Cruz Biotech, Inc). […] Lamin A/C (anti-lamin A/C, BD Pharmingen) is shown as a loading control.
# Cells grown at low concentrations were treated with the lead NES inhibitors (25 μM) or a leptomycin B (5 nM) control for 20 hours and chemically fractionated. Nuclei were assayed by SDS-PAGE Western blot analysis for p53 protein.
# WI-38 = assay: CT-Glo cytotoxicity assay, WI-38 cells; type: cell-based; conditions: 72-h CT-Glo
# Description: as §2
# SK-UT = assay: CT-Glo cytotoxicity assay, SK-UT cells; type: cell-based; conditions: 72-h CT-Glo, average ± SD
# Description: as §2
# HL-60 = assay: CT-Glo cytotoxicity assay, HL-60 cells; type: cell-based; conditions: 72-h CT-Glo
# Description: as §2
# MCF-7 = assay: CT-Glo cytotoxicity assay, MCF-7 cells; type: cell-based; conditions: average ± SD
# Description: as §2
# PBMC = assay: CT-Glo cytotoxicity assay, PBMC; type: cell-based; conditions: 72-h CT-Glo, average ± SD
# Description: as §2
# [5] = for 1 hour; cited from earlier work
# [6] = in vivo; cited from earlier work
# topo IIα [7] = conditions: cited from earlier work
# [8] = Homo sapiens, NCI-H929, 72-h CT-Glo
# [9] = Homo sapiens, MCF7, 72-h CT-Glo
compound,measurement,setting,value
"O=C(C[N+]12CN3CN(CN(C3)C1)C2)c1ccc(Br)cc1 [NCI-32237, 1-(4-bromophenyl)-2-(15,3,5,7-tetraazatricyclo[3.3.1.1~3,7~]dec-1-yl)ethanone]","Export of topo IIα, nuclear-cytoplasmic fractionation",topo IIα [1],did not affect nuclear export of topo II
same,"Cytoplasmic level / nuclear localization of topo IIα, fractionation Western blot",topo IIα [2],did not affect nuclear export of topo II
"O/N=C(/C[N+]12CN3CN(CN(C3)C1)C2)c1ccc(I)cc1 [NCI-35024, 1-(4-iodophenyl)-2-(15,3,5,7-tetraazatricyclo[3.3.1.1~3,7~]dec-1-yl)ethanone oxime]",Sensitization of high-density MM cells to doxorubicin / synergism,[3],significantly (p<0.05) sensitize high density MM cells to doxorubicin
same,Nuclear export of topo IIα by immunofluorescence,topo IIα [4],prevent nuclear export of Topo IIα
"O=C(Nc1ccc(C2=NCCN2)cc1)c1ccc(C(=O)Nc2ccc(C3=NCCN3)cc2)c([N+](=O)[O-])c1 [NCI-35847, N1,N4-bis(4-(4,5-dihydro-1H-imidazol-2-yl)phenyl)-2-(hydroxy(oxido)amino)terephthalamide]",IC50,RPMI-8226 (8226),7.2 ± 1.4 µM
same,"Export of topo IIα, nuclear-cytoplasmic fractionation",topo IIα [1],strongly blocked export of topo IIα
same,IC50,Kg-1a,73.8 µM
same,IC50,NCI-H929 (H929); 72-h CT-Glo,13.9 µM
same,Sensitization of high-density MM cells to doxorubicin / synergism,[3],synergized with the topo II inhibitor doxorubicin; also recorded: significantly (p<0.05) sensitize high density MM cells to doxorubicin
same,Fold-Increased sensitization to dox,[3],2.65 ± 0.90 fold
same,IC50,FLOW,62.8 µM
same,Nuclear export of p53,p53,did not prevent export of p53
same,IC50,WI-38,199 µM
same,IC50,SK-UT,55.3 µM
same,Nuclear export of topo IIα by immunofluorescence,topo IIα [4],prevent nuclear export of Topo IIα; also recorded: overlapping staining of topo II with DAPI
same,Fold-increase nuclear topo IIα,topo IIα [4],2.81 fold
same,IC50,HL-60,36.5 µM
same,"Cytoplasmic level / nuclear localization of topo IIα, fractionation Western blot",topo IIα [2],reduced cytoplasmic levels of topo IIα equivalent to that produced by the CRM-1 inhibitor ratjadone C
same,IC50,MCF-7; 72-h CT-Glo,68.5 µM
"O=C(C[N+]12CN3CN(CN(C3)C1)C2)c1ccc2ccccc2c1 [NCI-36400, 1-(2-naphthyl)-2-(15,3,5,7-tetraazatricyclo[3.3.1.1~3,7~]dec-1-yl)ethanone]",Sensitization of high-density MM cells to doxorubicin / synergism,[3],significantly (p<0.05) sensitize high density MM cells to doxorubicin
same,Nuclear export of topo IIα by immunofluorescence,topo IIα [4],prevent nuclear export of Topo IIα
"Brc1ccc(C[N+]23CN4CN(CN(C4)C2)C3)cc1 [NCI-80640, 1-(4-bromobenzyl)-15,3,5,7-tetraazatricyclo[3.3.1.1~3,7~]decane]",IC50,"RPMI-8226 (8226); Homo sapiens, RPMI-8226",12 ± 4.2 µM
same,"Export of topo IIα, nuclear-cytoplasmic fractionation",topo IIα [1],smaller or little effect on topo II nucleus export inhibition
same,IC50,Kg-1a; Homo sapiens,15.2 µM
same,IC50,NCI-H929 (H929); [8],16.2 µM
same,IC50,PBMC,16.4 µM
same,Sensitization of high-density MM cells to doxorubicin / synergism,[3],synergized with the topo II inhibitor doxorubicin
same,Fold-Increased sensitization to dox,[3],2.42 ± 1.09 fold
same,IC50,FLOW,35.6 µM
same,Nuclear export of p53,p53,significantly inhibit nuclear export of p53
same,IC50,WI-38; Homo sapiens,56.3 µM
same,IC50,SK-UT,25.5 µM
same,Nuclear export of topo IIα by immunofluorescence,topo IIα [4],overlapping staining of topo II with DAPI
same,IC50,HL-60; Homo sapiens,11.9 µM
same,"Cytoplasmic level / nuclear localization of topo IIα, fractionation Western blot",topo IIα [2],reduced cytoplasmic levels of topo IIα equivalent to that produced by the CRM-1 inhibitor ratjadone C
same,IC50,MCF-7; [9],25.9 µM
"Clc1cc(Cl)c(C[N+]23CN4CN(CN(C4)C2)C3)cc1Cl [NCI-155877, 1-(2,4,5-trichlorobenzyl)-15,3,5,7-tetraazatricyclo[3.3.1.1~3,7~]decane]",IC50,"RPMI-8226 (8226); Homo sapiens, RPMI-8226",19.5 ± 5.4 µM
same,"Export of topo IIα, nuclear-cytoplasmic fractionation",topo IIα [1],smaller or little effect on topo II nucleus export inhibition
same,IC50,Kg-1a; Homo sapiens,31.4 µM
same,IC50,NCI-H929 (H929); [8],33.6 µM
same,IC50,PBMC,37.2 µM
same,Sensitization of high-density MM cells to doxorubicin / synergism,[3],synergized with the topo II inhibitor doxorubicin
same,Fold-Increased sensitization to dox,[3],2.82 ± 1.18 fold
same,IC50,FLOW,56.8 µM
same,Nuclear export of p53,p53,did not prevent export of p53
same,IC50,WI-38; Homo sapiens,136 µM
same,IC50,SK-UT,50.4 µM
same,Nuclear export of topo IIα by immunofluorescence,topo IIα [4],overlapping staining of topo II with DAPI
same,Fold-increase nuclear topo IIα,topo IIα [4],3.92 fold
same,IC50,HL-60; Homo sapiens,20.4 µM
same,"Cytoplasmic level / nuclear localization of topo IIα, fractionation Western blot",topo IIα [2],did not significantly reduce the level of cytoplasmic topo IIα
same,IC50,MCF-7; [9],37.1 µM
CCC(=C/[C@H](C)C/C=C/C(C)=C/[C@@H](C)C(=O)[C@@H](C)[C@H](O)[C@@H](C)C/C(C)=C/C(=O)O)/C=C/[C@@H]1OC(=O)C=C[C@@H]1C [leptomycin B],Concentration with acute toxicity in vitro,[5],< 5 nM
same,Toxicity in human phase I trial,[6],acute relative toxicities
same,Export mediated by topo IIα NES site A and site B,topo IIα [7],blocked
Ratjadone C [reference compound],"Export of topo IIα, nuclear-cytoplasmic fractionation",topo IIα [1],prevented nuclear export
